Counter-ions that a name gives are not always drawn. Like-named read-outs stand apart in the source and are kept apart here.
What was measured:
Assay type in all cases: biochemical
β-Glucosidase (Almond) = experiment: β-Glucosidase (almond) inhibition
Experimental: (§1) With rat intestinal maltase as an exception, other enzymes were purchased from Sigma-Aldrich Chemical Co. (St. Louis, MO, USA). Brush border membranes prepared from rat small intestine according to the method of Kessler et al. were assayed at pH 6.8 for rat intestinal maltase using maltose. The released D-glucose was determined colorimetrically using the Glucose CII-test Wako (Wako Pure Chemical Ind.; Osaka, Japan). Other glycosidase activities were determined using an appropriate p-nitrophenyl glycoside as substrate in a buffer solution at the optimal pH value of each enzyme. The reaction was stopped by adding 400 mM Na2CO3. The released p-nitrophenol was measured spectrometrically at 400 nm.

[1] = molecular target: β-Glucosidase (Bovine liver); experiment: β-Glucosidase (bovine liver) inhibition
Experimental: as §1

[2] = molecular target: T1, α-Mannosidase (Jack bean) (Canavalia ensiformis, UniProt C0HJB3); experiment: α-Mannosidase (Jack bean) inhibition
T1 construct: purchased Sigma-Aldrich Chemical Co
T1 sequence (C0HJB3 1-981): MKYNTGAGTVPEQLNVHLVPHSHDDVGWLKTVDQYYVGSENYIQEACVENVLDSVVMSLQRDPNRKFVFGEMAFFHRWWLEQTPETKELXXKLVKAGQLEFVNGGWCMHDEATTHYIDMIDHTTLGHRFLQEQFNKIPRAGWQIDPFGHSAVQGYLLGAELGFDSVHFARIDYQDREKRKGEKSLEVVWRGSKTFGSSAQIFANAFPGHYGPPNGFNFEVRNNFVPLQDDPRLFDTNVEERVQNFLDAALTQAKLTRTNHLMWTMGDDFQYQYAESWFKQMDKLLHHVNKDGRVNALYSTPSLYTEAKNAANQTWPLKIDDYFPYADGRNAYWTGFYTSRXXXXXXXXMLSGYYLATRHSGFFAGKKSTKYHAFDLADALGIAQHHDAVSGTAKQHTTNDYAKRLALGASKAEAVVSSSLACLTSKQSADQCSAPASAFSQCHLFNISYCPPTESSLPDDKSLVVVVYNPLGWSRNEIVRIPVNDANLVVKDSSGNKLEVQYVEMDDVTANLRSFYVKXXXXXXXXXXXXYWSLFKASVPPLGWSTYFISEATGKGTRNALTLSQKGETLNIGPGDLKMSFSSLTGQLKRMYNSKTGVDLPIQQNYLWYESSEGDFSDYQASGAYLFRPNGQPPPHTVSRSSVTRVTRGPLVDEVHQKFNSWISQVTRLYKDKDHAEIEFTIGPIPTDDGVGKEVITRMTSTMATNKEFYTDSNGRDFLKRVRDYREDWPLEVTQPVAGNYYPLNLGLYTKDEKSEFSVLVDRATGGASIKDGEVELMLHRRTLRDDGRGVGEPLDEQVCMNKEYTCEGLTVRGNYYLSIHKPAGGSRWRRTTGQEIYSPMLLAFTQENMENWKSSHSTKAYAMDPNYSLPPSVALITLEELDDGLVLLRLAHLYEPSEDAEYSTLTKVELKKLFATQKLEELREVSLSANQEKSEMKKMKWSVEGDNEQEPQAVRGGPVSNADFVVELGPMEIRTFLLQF
Experimental: as §1

β-Mannosidase (Snail) = experiment: β-Mannosidase (snail) inhibition
Experimental: as §1

[3] = molecular target: T2, α,α-Trehalase (Porcine kidney) (Sus scrofa, UniProt I3LIR5); experiment: α,α-Trehalase (porcine kidney) inhibition
T2 construct: purchased Sigma-Aldrich Chemical Co; host or cells: porcine kidney
T2 sequence (I3LIR5 24-583): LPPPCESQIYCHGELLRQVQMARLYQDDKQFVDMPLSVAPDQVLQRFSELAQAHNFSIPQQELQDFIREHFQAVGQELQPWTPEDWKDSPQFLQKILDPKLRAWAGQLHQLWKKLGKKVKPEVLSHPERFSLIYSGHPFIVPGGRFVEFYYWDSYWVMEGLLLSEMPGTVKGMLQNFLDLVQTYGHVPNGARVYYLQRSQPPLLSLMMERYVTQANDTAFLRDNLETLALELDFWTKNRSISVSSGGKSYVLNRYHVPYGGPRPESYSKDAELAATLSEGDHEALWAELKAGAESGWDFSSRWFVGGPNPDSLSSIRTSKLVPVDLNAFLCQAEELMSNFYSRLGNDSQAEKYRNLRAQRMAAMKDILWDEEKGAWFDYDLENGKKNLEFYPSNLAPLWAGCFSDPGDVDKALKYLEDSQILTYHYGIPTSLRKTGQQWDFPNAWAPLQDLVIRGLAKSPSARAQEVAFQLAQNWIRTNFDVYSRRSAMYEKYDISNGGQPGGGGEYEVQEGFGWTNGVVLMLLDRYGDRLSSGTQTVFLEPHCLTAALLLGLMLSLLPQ
Experimental: as §1

[4] = molecular target: β-N-Acetylgalactosaminidase (HL60); experiment: β-N-Acetylgalactosaminidase (HL60) inhibition
Experimental: as §1

[5] = molecular target: T3, α-N-Acetylgalactosaminidase (Chicken liver) (Gallus gallus, UniProt Q90744); experiment: α-N-Acetylgalactosaminidase (chicken liver) inhibition
T3 construct: purchased Sigma-Aldrich Chemical Co; host or cells: chicken liver
T3 sequence (Q90744 1-405): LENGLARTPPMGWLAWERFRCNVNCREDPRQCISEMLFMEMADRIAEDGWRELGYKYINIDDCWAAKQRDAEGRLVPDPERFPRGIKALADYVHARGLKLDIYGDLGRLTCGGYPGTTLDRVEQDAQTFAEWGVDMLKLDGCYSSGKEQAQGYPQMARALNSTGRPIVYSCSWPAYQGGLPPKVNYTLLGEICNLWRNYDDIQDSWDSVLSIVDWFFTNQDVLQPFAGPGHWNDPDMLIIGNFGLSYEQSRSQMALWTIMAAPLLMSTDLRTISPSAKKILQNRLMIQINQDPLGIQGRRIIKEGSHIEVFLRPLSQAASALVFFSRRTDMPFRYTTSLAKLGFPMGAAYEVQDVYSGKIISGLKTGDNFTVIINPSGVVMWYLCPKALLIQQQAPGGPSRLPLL
Experimental: as §1

[6] = 1000 μM, read-out: Inhibition % at 1000 μM

## CC(=O)NC[C@@H]1N[C@H](CO)[C@@H](O)[C@H]1O [H-10, 1-N-acetylamino-2,5-imino-1,2,5-trideoxy-L-allitol hydrochloride]
β-Glucosidase (Almond)
  IC50: NI (No Inhibition (less than 50% at 1000 μM))
β-Glucosidase (Almond); 1000 μM
  Inhibition % at 1000 μM: 17.1%
[1]
  IC50: NI (No Inhibition (less than 50% at 1000 μM))
[1]; 1000 μM
  Inhibition % at 1000 μM: 1.7%
[2]; [6]
  inhibition at 1000 µM: 9.5%
[2]; read-out: IC50
  inhibition at 1000 µM: < 50%
β-Mannosidase (Snail)
  IC50: NI (No Inhibition (less than 50% at 1000 μM))
β-Mannosidase (Snail); 1000 μM
  Inhibition % at 1000 μM: 0%
[3]; [6]
  inhibition at 1000 µM: 40.9%
[3]; read-out: IC50
  inhibition at 1000 µM: < 50%
[4]
  IC50: NI (No Inhibition (less than 50% at 1000 μM))
[4]; 1000 μM
  Inhibition % at 1000 μM: 5.3%
[5]; [6]
  inhibition at 1000 µM: 6.1%
[5]; read-out: IC50
  inhibition at 1000 µM: < 50%
